Assay results taken from patent US8048918B2, “Treatment of hyperproliferative diseases” (Vampex Limited, priority 2000, dated 2011).
“Also recorded” adds a separate entry of the source. Where no end group is shown, it is not given here.

Assays:
retinoic acid synthesis = experiment: RA synthesis in normal human epidermal keratinocytes; type: cell-based; settings: Carbenoxolone 6 μM, Disulfiram 15 μM or Citral 10 μM
Experimental: Protocols used are as described in as in Båvik et al., Experimental Cell research 1995:216, p. 358-362. Briefly, subcultures are grown to confluence in KGM. On day of confluence change to keratinocyte differentiation media (1.2 mM Ca^2+, KDM) with 2 μM holo-RBP+/−inhibitors ([…]; […]; 10 μM Citral; 0.2 mM 4-Methylpyrazole; 15 μM Disulfiram; 10 μM Citral; 2 mM 3-Mercaptopropionic acid; or drug vehicle alone). Cells are grown for 4 days, and cells are media are harvested.
The concentration of RA in cells and media is analysed directly by HPLC. Essentially as in “Characterisation of retinol metabolism in cultured human epidermal keratinocytes”, Randolph R. K. and Simon M., J. Biol. Chem. 268:9198-9205, 1993. The concentration of RA in cells is also analysed indirectly by Northern blot analysis of CRABPII mRNA expression in the keratinocytes, essentially as described in Elder et al. Retinoid Induction of CRABPII nRNA in Human Dermal Fibroblasts: Use as a Retinoid Bioassay, J. Investigative Dermatology 106:517-521, 1996.
The above two experiments are repeated, but with the use of normal human epithelial keratinocytes instead of psoriatic human epidermal keratinocytes.

RalDHII = target: T1, RalDHII (Rattus norvegicus, UniProt Q63639); settings: Penzes et al. 1997; Chen and Juchau 1997; cited from earlier work
T1 sequence (Q63639 1-518): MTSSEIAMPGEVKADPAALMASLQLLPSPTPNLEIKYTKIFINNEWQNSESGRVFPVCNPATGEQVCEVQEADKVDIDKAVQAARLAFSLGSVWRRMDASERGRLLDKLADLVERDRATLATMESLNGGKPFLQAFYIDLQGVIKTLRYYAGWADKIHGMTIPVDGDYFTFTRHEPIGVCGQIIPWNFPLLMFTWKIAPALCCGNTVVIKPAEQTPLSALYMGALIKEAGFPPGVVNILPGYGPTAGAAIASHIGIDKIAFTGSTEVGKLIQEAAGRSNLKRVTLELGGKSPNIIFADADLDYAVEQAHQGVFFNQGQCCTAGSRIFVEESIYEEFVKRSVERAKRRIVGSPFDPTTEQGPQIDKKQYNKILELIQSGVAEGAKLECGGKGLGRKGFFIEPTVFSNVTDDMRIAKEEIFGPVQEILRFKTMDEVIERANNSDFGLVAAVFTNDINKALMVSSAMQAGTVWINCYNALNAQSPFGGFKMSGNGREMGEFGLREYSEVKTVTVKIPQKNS

[1] = test system: hyperproliferative psoriatic keratinocytes; experiment: proliferation assay (Coulter cell counter) on hyperproliferative psoriatic keratinocytes; type: cell-based, human
Description: Biopsy samples are obtained from psoriatic patients. Skin from patients with chronic plaque psoriasis are obtained with informed consent. Ethical approval has been obtained previously from The South Sheffield Regional Ethics Committee. Biopsies are all be taken from the lower back in psoriasis patients aged 40 to 60.
Remove subcutaneous tissue and some of the dermis with scissors, dissect skin into 1×2 cm pieces with a scalpel. Rinse the tissue 2-5 times in PBSA. Float skin samples on 0.6% Trypsin in PBSA (pH 7.4) ON at 4° C. (or alternatively for 20-30 min at 37° C.)
The separation of the epidermis is carefully monitored. When the first detachment of the epidermis is visible at the cut edges of the skin sample place the pieces (dermis-side down) in 100 mm Petri dishes. Irrigate with 5 ml of complete culture medium (incl. serum). Peel off the epidermis with forceps and collect it in a 50 ml centrifuge tube containing 20 ml of complete culture medium (KGM). Separate the keratinocytes from the epidermal cells by gently pipetting and sieving through a nylon gauze of 100 μm mesh. Wash the isolated epidermal cells twice in KGM by centrifugation at 100 g for 10 min, and count the total number of cells.
Cells are seeded at 37° C. in KGM medium at a density of 2500 cells/cm^2 in a 25 cm^2 cell culture flask. The medium is replaced every 48 hours and cells are passaged when confluent.
Cell Seeding and Analysis: Purchased secondary cultures or primary cultures (from donor skin) are seeded at 3500 cells/cm^2 in K-SFM 25 cm^2 tissue culture flasks. The medium is changed (5 ml per flask) the day after seeding and every other day thereafter. At 70-80% confluence the cells are subcultured by seeding 3500 cells per well in 24 well cell culture plates, each well containing 500 μl of K-SFM. One well plate is seeded for each treatment. After allowing one day for settling the cells are switched to experimental medium (500 μl per well). Stock solutions of additions are as before. Experimental treatments are as follows:
The medium is replaced every other day. Cells are harvested by trypsinisation. 500 μl Trypsin/EDTA is added to each well to be harvested and then aspirated off. The well plates are incubated for 5-6 min at 37° C. 500 μl PBS is added to the wells and the cells are resuspended. The cell suspension is added to 20 ml Isoton solution in a Coulter counter “Accuvette” and the cells are counted. On each harvest, 3 wells of cells are counted for each treatment and 3 counts were made for each well.
Cell number is calculated as follows: Coulter Counter removes 500 μl of 20 ml sample ( 1/40). Multiply cell count by 40 to obtain cell number in cup, this equals the total number of cells in one well (approximately, as ˜10% taken out for viability test). […]

retinol dehydrogenase = settings: Boerman and Napoli, Biochemistry 34:7027-37, 1995; cited from earlier work

Molecule | retinoic acid synthesis (retinoic acid synthesis) | IC50 (RalDHII) [µM] | effect on RBP-increased proliferation ([1]; peptides 6 μM, Ca2+ 1.2 mM, RBP 0.6 μM) | IC50 (retinol dehydrogenase) [µM] | effect on retinol/retinoic acid-induced keratinocyte proliferation (cell numbers) ([1]; RA synthesis inhibitors (Disulfiram 15 μM, Citral 10 μM, Carbenoxolone 12 μM), 1.2 mM Ca2+, 2 μM ROL, FIG. 10)
CC(C)=CCCC(C)=CC=O [Citral, 3,7-dimethyl-2,6-octadienal] | inhibited | 12 | – | – | –
GRVRLLNNWDVCA | – | – | reversed; also recorded: reduces proliferation | – | –
CC1(C)[C@@H](OC(=O)CCC(=O)O)CC[C@]2(C)[C@H]3C(=O)C=C4[C@@H]5C[C@@](C)(C(=O)O)CC[C@]5(C)CC[C@@]4(C)[C@]3(C)CC[C@@H]12 [Carbenoxolone] | inhibited | – | – | 55 | particularly marked effect
